The record followed here is ChEMBL document CHEMBL5154675, “Design, Synthesis, and Biological Evaluation of 1-(Indolizin-3-yl)ethan-1-ones as CBP Bromodomain Inhibitors for the Treatment of Prostate Cancer” (J Med Chem, 2022).

The nature of data set [1]: AUC (0 to infinity) in Sprague-Dawley rat at 25 mg/kg, po measured up to 24 hrs. The data set is classed as ADME, organism-based. Set-up: time < 24 hrs, dose 25 mg/kg, route po. The conditions noted are these: in vivo.
The test system of another data set is LNCaP C4-2B. As to the kind of experiment: Antiproliferative activity against human LNCaP C4-2B cells assessed as inhibition of cell growth by Celltiter-Glo assay. The data set is classed as functional, cell-based. (In general: ATP-based viability assays read luminescence as a measure of living cells.)
Data set [2] deals with T1, CREB-binding protein (Homo sapiens, UniProt Q92793). The note with it: dose 200.0 µM, time 30.0 min.
The target in data set [3] is T2, Bromodomain-containing protein 2 (Homo sapiens, UniProt P25440). The conditions noted are these: dose 200.0 µM, time 30.0 min.
Target sequence in this assay (P25440 whole entry, looked up): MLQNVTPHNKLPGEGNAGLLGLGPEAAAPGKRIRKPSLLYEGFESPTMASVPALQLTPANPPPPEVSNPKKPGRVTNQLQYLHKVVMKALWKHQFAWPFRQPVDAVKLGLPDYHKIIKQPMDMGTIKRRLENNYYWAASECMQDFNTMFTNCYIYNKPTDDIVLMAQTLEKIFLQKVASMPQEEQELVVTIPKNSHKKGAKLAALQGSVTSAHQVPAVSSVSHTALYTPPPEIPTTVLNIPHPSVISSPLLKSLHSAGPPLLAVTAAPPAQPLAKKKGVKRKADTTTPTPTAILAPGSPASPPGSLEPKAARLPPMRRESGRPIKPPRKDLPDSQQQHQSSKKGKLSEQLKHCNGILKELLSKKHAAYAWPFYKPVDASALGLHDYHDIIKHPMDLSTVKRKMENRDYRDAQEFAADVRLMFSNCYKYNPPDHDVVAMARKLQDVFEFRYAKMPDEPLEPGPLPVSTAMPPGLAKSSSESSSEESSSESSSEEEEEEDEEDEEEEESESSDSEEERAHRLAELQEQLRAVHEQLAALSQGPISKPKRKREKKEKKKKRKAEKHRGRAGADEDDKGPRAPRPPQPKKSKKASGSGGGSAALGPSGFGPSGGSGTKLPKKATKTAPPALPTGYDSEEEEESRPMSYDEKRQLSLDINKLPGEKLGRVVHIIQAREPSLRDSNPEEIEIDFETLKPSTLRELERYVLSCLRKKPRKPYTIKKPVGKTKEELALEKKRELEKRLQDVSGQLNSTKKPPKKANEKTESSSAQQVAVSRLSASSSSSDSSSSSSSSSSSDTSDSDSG
In data set [4] the target is Histone acetyltransferase KAT2B (Homo sapiens) (UniProt Q92831). The note with it: dose 200.0 µM, time 30.0 min.
A short description of data set [5]: Cmax in Sprague-Dawley rat at 5 mg/kg, iv administered as single dose measured up to 24 hrs. On the set-up: time < 24 hrs, dose 5 mg/kg, route iv. The data set is classed as ADME, organism-based. The conditions noted are these: in vivo.
Data set [6] has as its target Chromatin remodeling regulator CECR2 (Homo sapiens) (UniProt Q9BXF3). The note with it: dose 200.0 µM, time 30.0 min.
For data set [7], the target named is T3, Bromodomain testis-specific protein (Homo sapiens, UniProt Q58F21). The conditions noted are these: dose 200.0 µM, time 30.0 min.
Data set [8] concerns the target T4, Bromodomain-containing protein 4 (Homo sapiens, UniProt O60885). The conditions noted are these: dose 200.0 µM, time 30.0 min.
Data set [9] can be described thus: AUC (0 to infinity) in Sprague-Dawley rat at 5 mg/kg, iv administered as single dose measured up to 24 hrs. The data set is classed as ADME, organism-based. On the set-up: time < 24 hrs, dose 5 mg/kg, route iv. The conditions noted are these: Sprague-Dawley, in vivo.
Data set [10] in a line: Half life in Sprague-Dawley rat at 25 mg/kg, po measured up to 24 hrs. It is filed as ADME, organism-based. The conditions noted are these: in vivo.
Data set [11] in a line: Half life in Sprague-Dawley rat at 5 mg/kg, iv administered as single dose measured up to 24 hrs. The data set is classed as ADME, organism-based. The note with it: Sprague-Dawley, in vivo.
The target of data set [12] is T5, Bromodomain-containing protein 9 (Homo sapiens) (UniProt Q9H8M2).
T5 sequence (whole entry): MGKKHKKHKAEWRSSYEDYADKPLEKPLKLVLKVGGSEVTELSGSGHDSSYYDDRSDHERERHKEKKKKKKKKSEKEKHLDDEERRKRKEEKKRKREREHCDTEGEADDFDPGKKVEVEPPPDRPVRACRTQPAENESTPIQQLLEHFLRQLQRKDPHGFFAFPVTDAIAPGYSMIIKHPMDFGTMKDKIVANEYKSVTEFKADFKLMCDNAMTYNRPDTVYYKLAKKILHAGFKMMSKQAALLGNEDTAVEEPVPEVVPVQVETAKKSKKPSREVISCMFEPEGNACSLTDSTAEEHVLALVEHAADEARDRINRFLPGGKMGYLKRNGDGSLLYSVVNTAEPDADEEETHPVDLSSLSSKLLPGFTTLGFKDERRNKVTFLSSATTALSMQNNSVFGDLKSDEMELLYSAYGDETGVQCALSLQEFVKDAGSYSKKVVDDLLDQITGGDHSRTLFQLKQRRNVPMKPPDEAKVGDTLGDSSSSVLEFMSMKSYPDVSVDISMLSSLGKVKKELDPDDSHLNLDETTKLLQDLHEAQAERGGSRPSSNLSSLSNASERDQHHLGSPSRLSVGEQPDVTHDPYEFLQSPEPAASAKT
The conditions noted are these: dose 200.0 µM, time 30.0 min.

Data set [13] can be described thus: Oral bioavailability in Sprague-Dawley rat at 25 mg/kg measured up to 24 hrs. The data set is classed as ADME, organism-based. The note with it: in vivo.
Data set [14] has as its target T6, Bromodomain-containing protein 3 (Homo sapiens, UniProt Q15059). The conditions noted are these: dose 200.0 µM, time 30.0 min.
The test system of a further data set is LNCaP. As to the kind of experiment: Antiproliferative activity against human LNCaP cells assessed as cell growth inhibition by Celltiter-Glo assay. It is filed as functional, cell-based.
Data set [15] is described as follows: Clearance in Sprague-Dawley rat at 5 mg/kg, iv administered as single dose measured up to 24 hrs. The data set is classed as ADME, organism-based. The conditions noted are these: Sprague-Dawley, in vivo.
Data set [16] has as its target T4, Bromodomain-containing protein 4. The note with it: dose 200.0 µM, time 30.0 min. The source holds these as a separate data set.
In data set [17] the target is SWI/SNF-related matrix-associated actin-dependent regulator of chromatin subfamily A member 2 (Homo sapiens) (UniProt P51531). The note with it: dose 200.0 µM, time 30.0 min.
For data set [18], the target named is T1, CREB-binding protein. As to the kind of experiment: Inhibition of His6-tagged human CBP bromodomain (1081 to 1197 residues) expressed in Escherichia coli BL21 (DE3) incubated for 30 mins by HTRF assay. On the technique in general: In TR-FRET formats the signal depends on donor and acceptor labels being close together.
Data set [19] can be described thus: Cmax in Sprague-Dawley rat at 25 mg/kg, po measured up to 24 hrs. The data set is classed as ADME, organism-based. On the set-up: dose 25 mg/kg, time < 24 hrs, route po. The conditions noted are these: in vivo.
Data set [20] addresses T3, Bromodomain testis-specific protein. The conditions noted are these: dose 200.0 µM, time 30.0 min. This is another data set of the same source.
For data set [21], the target named is T2, Bromodomain-containing protein 2. The conditions noted are these: dose 200.0 µM, time 30.0 min. The source holds these as a separate data set.
Target sequence in this assay (P25440 whole entry, looked up): as the sequence (P25440 whole entry, looked up) above
For a further data set, the system named is CWR22R. As to the kind of experiment: Antiproliferative activity against human 22Rv1 cells assessed as cell growth inhibition by Celltiter-Glo assay. The data set is classed as functional, cell-based.
The target in data set [22] is T6, Bromodomain-containing protein 3. The note with it: dose 200.0 µM, time 30.0 min. The source holds these as a separate data set.
The target of data set [23] is PH-interacting protein (Homo sapiens) (UniProt Q8WWQ0). The conditions noted are these: dose 200.0 µM, time 30.0 min.
Data set [24] deals with Histone acetyltransferase p300 (Homo sapiens) (UniProt Q09472). The note with it: dose 200.0 µM, time 30.0 min.
Data set [25] addresses Bromodomain adjacent to zinc finger domain protein 2B (Homo sapiens) (UniProt Q9UIF8). The conditions noted are these: dose 200.0 µM, time 30.0 min.
Data set [26] addresses T3, Bromodomain testis-specific protein. As to the kind of experiment: Binding affinity to His6-tagged human BRDT bromodomain-1 (21 to 137 residues) expressed in Escherichia coli BL21 (DE3) assessed as dissociation constant by ITC analysis. (In ITC the heat of successive injections is recorded.)
Data set [27] concerns the target T2, Bromodomain-containing protein 2. As to the kind of experiment: Binding affinity to His6-tagged human BRD2 bromodomain-1 (77 to 194 residues) expressed in Escherichia coli BL21 (DE3) assessed as dissociation constant by ITC analysis.
Data set [28] has as its target T4, Bromodomain-containing protein 4. As to the kind of experiment: Binding affinity to His6-tagged human BRD4 bromodomain-1 (44 to 168 residues) expressed in Escherichia coli BL21 (DE3) assessed as dissociation constant by ITC analysis.
The target of data set [29] is T7, Bromodomain-containing protein 9 (Homo sapiens, UniProt Q9H8M2).
T7 sequence (Q9H8M2 whole entry): T5 sequence (whole entry)
As to the kind of experiment: Binding affinity to His6-tagged human BRD9 bromodomain (14 to 134 residues) expressed in Escherichia coli BL21 (DE3) assessed as dissociation constant by ITC analysis.

Data set [30] in a line: Apparent permeability across apical to basolateral side in human Caco-2 cells at 10 uM measured after 2 hrs by LC-MS/MS analysis. The data set is classed as ADME, cell-based.
Data set [31] in a line: Apparent permeability across basolateral to apical side in human Caco-2 cells assessed as drug recovery at 10 uM measured after 2 hrs by LC-MS/MS analysis. The data set is classed as ADME, cell-based. The note with it: read-out: Drug recovery.
Data set [32] can be described thus: Apparent permeability across basolateral to apical side in human Caco-2 cells at 10 uM measured after 2 hrs by LC-MS/MS analysis. It is filed as ADME, cell-based.
Data set [33] in a line: Apparent permeability across apical to basolateral side in human Caco-2 cells assessed as drug recovery at 10 uM measured after 2 hrs by LC-MS/MS analysis. It is filed as ADME, cell-based. The note with it: read-out: Drug recovery.

T6 sequence (Q15059 2-726 limits assumed): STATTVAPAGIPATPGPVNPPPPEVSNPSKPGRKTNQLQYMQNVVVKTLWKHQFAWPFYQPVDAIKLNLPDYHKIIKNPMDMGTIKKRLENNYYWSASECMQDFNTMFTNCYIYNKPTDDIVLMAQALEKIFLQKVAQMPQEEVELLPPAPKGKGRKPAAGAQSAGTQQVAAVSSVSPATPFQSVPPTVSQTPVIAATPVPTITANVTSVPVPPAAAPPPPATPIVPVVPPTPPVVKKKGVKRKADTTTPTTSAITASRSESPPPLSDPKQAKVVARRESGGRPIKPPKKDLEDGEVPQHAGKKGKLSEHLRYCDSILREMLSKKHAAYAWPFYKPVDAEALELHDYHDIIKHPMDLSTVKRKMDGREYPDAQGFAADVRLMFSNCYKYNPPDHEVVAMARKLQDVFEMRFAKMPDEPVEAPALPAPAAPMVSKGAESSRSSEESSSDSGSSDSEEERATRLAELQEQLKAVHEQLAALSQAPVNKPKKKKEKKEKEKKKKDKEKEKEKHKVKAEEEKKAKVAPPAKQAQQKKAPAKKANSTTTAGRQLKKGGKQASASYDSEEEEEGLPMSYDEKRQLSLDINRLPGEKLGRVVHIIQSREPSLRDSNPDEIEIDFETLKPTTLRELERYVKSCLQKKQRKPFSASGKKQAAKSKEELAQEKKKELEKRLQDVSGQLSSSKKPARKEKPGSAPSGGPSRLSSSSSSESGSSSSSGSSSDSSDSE
Sequence of Histone acetyltransferase p300 (Homo sapiens) (Q09472 whole entry, the tested form may be a part): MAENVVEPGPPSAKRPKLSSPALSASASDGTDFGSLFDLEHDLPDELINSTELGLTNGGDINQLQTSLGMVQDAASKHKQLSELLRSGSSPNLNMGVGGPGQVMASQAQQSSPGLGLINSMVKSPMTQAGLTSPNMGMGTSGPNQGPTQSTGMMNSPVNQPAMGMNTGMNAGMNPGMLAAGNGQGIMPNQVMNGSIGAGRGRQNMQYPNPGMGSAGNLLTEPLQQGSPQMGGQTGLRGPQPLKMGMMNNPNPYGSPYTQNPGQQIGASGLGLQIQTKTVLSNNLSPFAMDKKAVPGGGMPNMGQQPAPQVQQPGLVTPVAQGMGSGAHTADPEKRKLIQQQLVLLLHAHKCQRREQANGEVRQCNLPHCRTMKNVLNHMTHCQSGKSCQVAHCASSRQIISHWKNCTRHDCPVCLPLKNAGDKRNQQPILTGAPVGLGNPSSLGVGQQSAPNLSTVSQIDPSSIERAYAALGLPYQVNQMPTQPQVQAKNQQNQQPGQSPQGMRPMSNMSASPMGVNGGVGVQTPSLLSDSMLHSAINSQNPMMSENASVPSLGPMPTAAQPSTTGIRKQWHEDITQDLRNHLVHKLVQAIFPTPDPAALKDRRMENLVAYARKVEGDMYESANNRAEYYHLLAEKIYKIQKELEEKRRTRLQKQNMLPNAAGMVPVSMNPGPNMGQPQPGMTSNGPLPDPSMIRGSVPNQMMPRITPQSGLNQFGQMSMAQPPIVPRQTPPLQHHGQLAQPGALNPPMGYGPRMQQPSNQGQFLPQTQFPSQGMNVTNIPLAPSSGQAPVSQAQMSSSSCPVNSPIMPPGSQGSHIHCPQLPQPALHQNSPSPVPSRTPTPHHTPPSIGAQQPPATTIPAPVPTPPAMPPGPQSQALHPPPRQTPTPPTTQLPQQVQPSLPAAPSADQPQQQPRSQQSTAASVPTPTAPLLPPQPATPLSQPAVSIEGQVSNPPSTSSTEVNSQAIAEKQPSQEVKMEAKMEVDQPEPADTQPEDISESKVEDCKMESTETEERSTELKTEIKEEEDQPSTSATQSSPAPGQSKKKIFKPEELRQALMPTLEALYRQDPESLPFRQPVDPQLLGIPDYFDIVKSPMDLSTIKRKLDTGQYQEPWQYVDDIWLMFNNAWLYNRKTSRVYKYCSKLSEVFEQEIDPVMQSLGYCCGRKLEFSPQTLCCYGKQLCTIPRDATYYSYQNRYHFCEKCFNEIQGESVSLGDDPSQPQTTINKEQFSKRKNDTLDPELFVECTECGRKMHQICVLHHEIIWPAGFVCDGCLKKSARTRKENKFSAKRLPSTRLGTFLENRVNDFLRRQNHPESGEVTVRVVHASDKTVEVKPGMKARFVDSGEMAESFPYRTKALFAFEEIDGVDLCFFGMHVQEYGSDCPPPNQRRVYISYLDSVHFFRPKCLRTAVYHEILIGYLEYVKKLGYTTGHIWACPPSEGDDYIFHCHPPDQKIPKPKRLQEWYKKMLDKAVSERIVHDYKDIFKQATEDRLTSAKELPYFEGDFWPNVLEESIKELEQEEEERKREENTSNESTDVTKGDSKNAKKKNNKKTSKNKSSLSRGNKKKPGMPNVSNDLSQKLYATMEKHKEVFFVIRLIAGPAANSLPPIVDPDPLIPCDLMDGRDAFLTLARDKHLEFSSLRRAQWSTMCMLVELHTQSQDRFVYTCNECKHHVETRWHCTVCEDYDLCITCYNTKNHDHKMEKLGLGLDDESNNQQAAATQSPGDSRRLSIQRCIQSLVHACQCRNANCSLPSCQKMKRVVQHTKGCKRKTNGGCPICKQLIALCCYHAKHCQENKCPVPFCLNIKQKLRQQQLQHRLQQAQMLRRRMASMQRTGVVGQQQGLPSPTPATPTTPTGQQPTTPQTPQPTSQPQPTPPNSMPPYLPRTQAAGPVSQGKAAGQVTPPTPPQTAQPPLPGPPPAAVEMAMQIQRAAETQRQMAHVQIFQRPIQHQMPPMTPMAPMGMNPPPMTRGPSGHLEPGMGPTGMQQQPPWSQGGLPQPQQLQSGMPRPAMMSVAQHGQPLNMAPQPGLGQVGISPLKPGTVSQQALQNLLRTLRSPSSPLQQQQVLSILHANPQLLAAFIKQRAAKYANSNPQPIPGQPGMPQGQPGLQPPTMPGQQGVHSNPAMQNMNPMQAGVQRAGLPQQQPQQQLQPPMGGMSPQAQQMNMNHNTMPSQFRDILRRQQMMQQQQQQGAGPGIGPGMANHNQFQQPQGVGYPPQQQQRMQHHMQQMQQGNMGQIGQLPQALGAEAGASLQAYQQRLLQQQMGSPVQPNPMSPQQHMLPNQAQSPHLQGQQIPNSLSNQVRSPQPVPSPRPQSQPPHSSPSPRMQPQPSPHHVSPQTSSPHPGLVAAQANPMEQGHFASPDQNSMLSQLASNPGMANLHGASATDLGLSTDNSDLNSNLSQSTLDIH
Sequence of Histone acetyltransferase KAT2B (Homo sapiens) (Q92831 whole entry, looked up): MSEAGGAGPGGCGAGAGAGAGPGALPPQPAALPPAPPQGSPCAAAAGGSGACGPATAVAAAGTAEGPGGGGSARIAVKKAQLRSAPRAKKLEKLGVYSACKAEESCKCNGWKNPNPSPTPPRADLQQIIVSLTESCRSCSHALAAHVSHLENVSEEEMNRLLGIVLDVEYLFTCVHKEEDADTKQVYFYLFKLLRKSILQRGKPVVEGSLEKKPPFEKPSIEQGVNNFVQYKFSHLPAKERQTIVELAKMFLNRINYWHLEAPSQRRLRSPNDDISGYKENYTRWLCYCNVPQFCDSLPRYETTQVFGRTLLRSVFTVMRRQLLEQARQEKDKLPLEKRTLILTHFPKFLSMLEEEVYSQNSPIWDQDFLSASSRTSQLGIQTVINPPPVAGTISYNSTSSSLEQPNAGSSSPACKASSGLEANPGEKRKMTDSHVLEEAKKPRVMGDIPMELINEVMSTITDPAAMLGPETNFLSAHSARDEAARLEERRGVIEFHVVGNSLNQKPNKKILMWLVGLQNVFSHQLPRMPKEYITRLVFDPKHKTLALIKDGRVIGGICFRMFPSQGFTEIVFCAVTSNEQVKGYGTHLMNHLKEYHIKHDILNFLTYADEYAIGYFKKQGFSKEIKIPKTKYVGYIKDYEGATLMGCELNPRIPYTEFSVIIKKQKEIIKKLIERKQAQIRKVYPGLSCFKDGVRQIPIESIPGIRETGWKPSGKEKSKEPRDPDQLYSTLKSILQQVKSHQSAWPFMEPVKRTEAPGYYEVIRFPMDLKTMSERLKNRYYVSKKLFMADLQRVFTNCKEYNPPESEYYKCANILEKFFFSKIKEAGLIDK

The AUC(0-inf) is the area under the concentration-time curve extrapolated to infinity. For orientation: IC50 means the concentration that gives 50% inhibition. As a reminder, the ΔTm is the change in melting temperature against a reference sample. As a reminder, the Cmax is the highest concentration seen after dosing. Usually half-life stands for how long it takes for the measured level to halve. A lower half-life goes with rapid decline. The bioavailability is dose-corrected exposure relative to a reference, in per cent. A word on the clearance: it is the volume of plasma or blood freed of the substance per unit of time. A low value points to inefficient removal. For the molecule `CC(=O)c1cc(C(=O)Nc2cc(C(C)O)cc(-c3cnn(C4CC4)c3)c2F)c2cc(N)ccn12` (stereo not given), the AUC(0-inf) in data set [1] was found to be 29.4 ng·h/mL; in data set [9] it was 796 ng·h/mL. Also, the 50% inhibitory concentration (IC50) in the data set with LNCaP C4-2B was 2970 nM; with LNCaP, 440 nM; on CREB-binding protein [18], 1.48 nM; in the data set with CWR22R, 2930 nM. Also, the ΔTm on CREB-binding protein [2] is 14 °C; in data set [3], -0.8 °C; in [4], -0.3 °C; in [6], -0.2 °C; in data set [7], 1.5 °C; in data set [8], -0.6 °C. The ΔTm was 5.3 °C in [12]; 0 °C in data set [14]; 0 °C in data set [16]; -0.3 °C in data set [17]; 0 °C in data set [20]; 1.3 °C in data set [21]. Moreover, the ΔTm is 0.5 °C in data set [22], -0.3 °C in [23], 14.5 °C in data set [24] and -0.2 °C in data set [25]. Moreover, the Cmax in [5] was 2680 ng/mL; in data set [19] it was 46.8 ng/mL. For the same molecule, the half-life is 1.97 h in [10] and 1.32 h in [11]. This molecule had a bioavailability in data set [13] of 0.68%. In addition, the clearance in data set [15] was 107 mL/min/kg.
What is called Kd is a measure of binding affinity in units of concentration. In the case of `CO[C@H]1CC[C@H](n2c([C@@H]3CCCC(=O)N3c3ccc(F)c(F)c3)nc3cc(-c4c(C)noc4C)ccc32)CC1` [INOBRODIB], the dissociation constant (Kd) was 1120 nM in [26], 390 nM in data set [27], 360 nM in data set [28] and 2610 nM in data set [29]. The IC50 was 1650 nM in the data set on LNCaP C4-2B, 60 nM in the data set on LNCaP and 420 nM in the data set with CWR22R. The ΔTm was 17.5 °C on CREB-binding protein [2]; 3.8 °C in data set [3]; -0.5 °C in data set [4]; 0 °C in data set [6]; 2.5 °C in data set [7]; 6.3 °C in data set [8]. The ΔTm in [12] was determined as 4.3 °C; in [14], 2 °C; in data set [16] it was 1.3 °C; in data set [17], 0 °C; in data set [20], 0.5 °C; in data set [21], 2.3 °C. For the same molecule, the ΔTm is 5.5 °C in data set [22], 0 °C in data set [23], 17.5 °C in data set [24] and -0.5 °C in [25].
In general, Papp A→B refers to the apparent permeability from the apical to the basolateral side of a cell layer. In general, Papp B→A refers to the apparent permeability from the basolateral to the apical side of a cell layer. Regarding `CC(C)NCC(O)COc1cccc2ccccc12` (stereo not given) [PROPRANOLOL], the Papp A→B at 2 h, 10 µM in data set [30] amounted to 28.3 ×10⁻⁶ cm/s. For the same molecule, the recovery at 2 h, 10 µM in [31] worked out at 90.7%; in [33], 85%. For the same molecule, the Papp B→A at 2 h, 10 µM in data set [32] was 18.9 ×10⁻⁶ cm/s.
